In ChEMBL document CHEMBL1133196, “A model for ZnII-containing-beta-lactamase: synthesis, X-ray crystal structure of a zinc(II) complex bearing thiol group and hydrolysis of phosphate diester” (Bioorg Med Chem Lett, 2000):

Assays:
[1] = Rate of hydrolysis of nitrocefin by compound was evaluated in water; assay type: ADME; conditions: buffer
[2] = Dissociation constant was evaluated; assay type: physicochemical

SMILES: Cl.Cl.[Zn+2].c1ccc(CNCc2ccccn2)nc1
- Activity [1]: 2.52e-08 M⁻¹ s⁻¹
- pKa [2]: 9.4

SMILES: [Cl-].[S-]CCN(Cc1ccccn1)Cc1ccccn1.[Zn+2]
- Activity [1]: 6.5e-09 M⁻¹ s⁻¹
- pKa [2]: 9
